Several values for one entry are separate records, joined by “and”; a condition that tells them apart may be missing. Identical values can stand only once.
System: INS-1E rat beta cells, no cytokines, CellTiter-Glo ATP, 48 h
Test: cytokine-free beta-cell viability effect – INS-1E rat cells, ATP luminescence, cherry pick, counter-screen for beta-cell apoptosis protection project, dose response (AID 463229)

Compound: Cc1cc(C)nc(N/N=C2/CCCC/C2=C\c2ccccc2)n1
- AC50: 3.72 µM

Compound: C/C(=N\NC(=O)c1ccccc1NC(=O)c1ccc(Cl)cc1)c1ccncc1
- AC50: 0.967 µM

Compound: CCN(CC)S(=O)(=O)c1cccc(NC(=O)Nc2cccc(C(F)(F)F)c2)c1
- AC50: 7.13 µM

Compound: O=C(Nc1cccc(Cl)c1)Nc1nnc(-c2ccncc2)s1
- AC50: 6.36 µM

Compound: Clc1ccc(C(Cn2ccnc2)OCc2csc3c(Cl)cccc23)c(Cl)c1 (stereo not given)
- AC50: 14.6 µM

Compound: O=[N+]([O-])c1cc(CN2CCN(c3ccccc3)CC2)c(O)c2ncccc12
- AC50: 3.1 µM

Compound: CCn1c(=O)c([N+](=O)[O-])c(Cl)c2ccccc21
- AC50: 7.4 µM

Compound: COc1ccc(CCNc2ncnc3c2oc2ccccc23)cc1OC
- AC50: 3.41 µM

Compound: O=C(N/N=C/c1cc(Br)c(O)c(Br)c1O)c1ccc2c(c1)OCCO2
- AC50: 8.27 µM

Compound: CCOC(=O)c1c(NC(=O)c2cc(-c3ccc(Cl)s3)nc3ccccc23)sc(C(N)=O)c1C
- AC50: 11.5 µM

Compound: Cc1ccc(NC(=O)c2ccc([N+](=O)[O-])o2)cc1S(=O)(=O)N1CCOCC1
- AC50: 14.3 µM

Compound: Cc1cc(C)c(CN2CCN(C(=O)Cn3cnc4c(OCc5ccccc5)ncnc43)CC2)c(C)c1
- AC50: 6.91 µM

Compound: O=C(COc1ccc(Cl)cc1)Nc1ccc(C(=O)NCc2cccnc2)cc1
- AC50: 0.236 µM

Compound: CC(C)OCCCNc1ncnc2c1[nH]c1ccc(F)cc12
- AC50: 2.46 µM

Compound: Cc1nnc(N/N=C/c2ccccn2)[nH]c1=O
- AC50: 5.46 µM

Compound: CCS(=O)(=O)c1ccc(OC)c(N=Nc2ccc(O)c3ncccc23)c1
- AC50: 9.84 µM

Compound: CC1CCC(C(C)C)C(OC(=O)Cn2c(-c3ccc(Br)cc3)[n+](C)c3ccccc32)C1 (stereo not given)
- AC50: 3.86 µM and 4.4 µM

Compound: C/C(=N\NC(=O)C(=O)Nc1cccc(Cl)c1)c1ccncc1
- AC50: 6.53 µM

Compound: O=C(N/N=C/c1cccnc1)c1ccc(NC(=O)C(c2ccccc2)c2ccccc2)cc1
- AC50: 0.848 µM

Compound: CCc1ccc2c(c1)C1(C(=O)N2)N2CCCC2C(C(=O)c2ccc3ccccc3c2)C12C(=O)Nc1ccccc12 (stereo not given)
- AC50: 7.76 µM

Compound: COc1ccc(C(=O)N2CCN(c3ccc([N+](=O)[O-])c(NCCc4ccc(OC)c(OC)c4)c3)CC2)cc1
- AC50: 3.46 µM

Compound: CCCCC(=O)NC(c1ccc(Cl)cc1Cl)c1ccc2cccnc2c1O (stereo not given)
- AC50: 2.22 µM

Compound: Cc1cc(C)n(Cc2ccc(NC(=O)c3ccc(COc4ccccc4Br)cc3)cc2)n1
- AC50: 8.33 µM

Compound: O=C(CSC1c2ccccc2-c2ccccc21)N/N=C/c1ccccc1O
- AC50: 6.8 µM

Compound: COc1ccc(-c2cc(-c3nc4ccccn4c3NCc3ccccc3)ccc2OC)cc1
- AC50: 0.992 µM

Compound: Cc1ccc(Cl)cc1NC1=C/C(=N\S(=O)(=O)c2cccs2)c2ccccc2C1=O
- AC50: 4.61 µM

Compound: O=S1(=O)C=C(Sc2nc3ccccc3s2)c2ccccc21
- AC50: 5.35 µM

Compound: CCCCCc1cc(=O)oc2c(C(CCN3CCCCC3)c3ccc4c(c3)OCO4)c(OC)cc(OC)c12 (stereo not given)
- AC50: 7.89 µM

Compound: Cc1ccc(-c2nn(-c3ccccc3)cc2/C=N/NC(=O)c2ccc(Br)o2)cc1
- AC50: 0.569 µM

Compound: C=CCCc1ccc(C#N)c(SCc2c(C(=O)OCC)c3cc(OC(C)=O)c(Br)cc3n2C)n1
- AC50: 1.07 µM

Compound: Cc1cc(C)c(C)c(S(=O)(=O)N2CCN(c3ncnc4ccccc34)CC2)c1C
- AC50: 6.34 µM

Compound: O=[N+]([O-])c1cccc2c(N3CCCC3)ccnc12
- AC50: 7.28 µM

Compound: Oc1c(Br)cc(Br)cc1/C=N/NC(=S)N[C@H]1CC2C=CC1C2 (stereo not given in full)
- AC50: 12.1 µM

Compound: O=C1c2ccc3c4c(ccc(c24)C(=O)N1c1cccc(O)c1)C(=O)N(c1cccc(O)c1)C3=O
- AC50: 3.36 µM

Compound: CCCN(CCC)c1nc(-c2ccccn2)nc2ccccc12
- AC50: 4.34 µM

Compound: COc1ccc(N(C(=O)CCl)C(C(=O)NCCc2ccccc2)c2cccs2)cc1Cl (stereo not given)
- AC50: 7.56 µM

Compound: O=C(N=Nc1c(O)n(Cc2ccccc2)c2ccccc12)c1cc2ccccc2cc1O
- AC50: 8.07 µM

Compound: Cc1nnsc1-c1onc(C)c1C(=O)Nc1cc(Cl)cc(Cl)c1
- AC50: 16.5 µM

Compound: C=CCn1cc(/C=C/c2cc[n+](C)cc2)c2ccccc21
- AC50: 4.63 µM

Compound: CNC(=O)c1sc(N2N=C3/C(=C/c4ccccc4)CCCC3C2c2ccccc2)nc1C (stereo not given)
- AC50: 5.11 µM

Compound: CCCCCc1cc(=O)oc2c(C(CCN3CCCC(C)C3)c3cc(OC)c(OC)c(OC)c3)c(OC)cc(OC)c12 (stereo not given)
- AC50: 14 µM

Compound: O=c1[nH]c(=O)n(-c2ccc(F)cc2)c2c1C(C(F)(F)F)(C(F)(F)F)N=C(c1ccc(F)cc1)N2
- AC50: 6.05 µM

Compound: CCOC(=O)c1ccc(-[n+]2c(-c3ccccc3)cc(-c3ccccc3)cc2-c2ccccc2)cc1
- AC50: 2.27 µM

Compound: CC1CCN(c2ccc(NC(=O)c3ccc([N+](=O)[O-])o3)cc2)CC1
- AC50: 10.1 µM

Compound: CCCCC[n+]1cccc2c3ccccc3ccc21
- AC50: 5.92 µM

Compound: CC(=O)NC(c1cc(Cl)c2cccnc2c1O)C(C)C (stereo not given)
- AC50: 8.18 µM

Compound: Cn1c(SCC(=O)N/N=C/c2ccc([N+](=O)[O-])s2)nnc1-c1ccc(Cl)cc1
- AC50: 12.1 µM

Compound: CCN(CC)S(=O)(=O)c1cc(OC)ccc1N=Nc1ccc(O)c2ncccc12
- AC50: 4.04 µM

Compound: C#CCOCCOCCOCCNc1nc(N2CCN(C(=O)CCCCCCCCCCNC(=O)[C@H](CCCCN)n3cc(C)nn3)CC2)nc(N2CCN(C(=O)CCCCCCCCCCNC(=O)[C@@H]([C@H](C)CC)n3cc(CCCCCN)nn3)CC2)n1
- AC50: 6.78 µM

Compound: O=[N+]([O-])c1cc(Cl)cc(/C=N\Nc2ccccn2)c1O
- AC50: 2.55 µM

Compound: COc1ccc(-n2cc(-c3ccc(C)cc3)[n+]3c2SCC3)cc1
- AC50: 0.924 µM

Compound: N#CC1=C(N)Oc2c(ccc3cccnc23)C1c1ccccc1 (stereo not given)
- AC50: 19.3 µM

Compound: Cn1nnnc1N=N/C(=N/Nc1ccccc1)c1ccccc1
- AC50: 4.36 µM

Compound: O=C(Nc1nc(NC(=O)c2ccco2)n(-c2ccccc2)n1)c1ccccc1
- AC50: 6.83 µM

Compound: O=C(NNc1c(Cl)cc(Cl)cc1Cl)c1cccc([N+](=O)[O-])c1
- AC50: 3.08 µM

Compound: C=CCc1cccc(/C=N/NC(=O)c2ccccc2OC)c1O
- AC50: 9.61 µM

Compound: CCCC(=O)NC(c1ccccc1)c1ccc2cccnc2c1O (stereo not given)
- AC50: 2.85 µM

Compound: COc1ccc(/C=N/NC(=O)c2nc(-c3ccccc3)n(-c3ccccc3)n2)c(O)c1
- AC50: 4.37 µM

Compound: CCOC(=O)c1cnc(-n2nc(C)cc2C)nc1NC(C)c1ccccc1 (stereo not given)
- AC50: 13.7 µM

Compound: Cc1ccc(S(=O)(=O)Nc2ccccc2C(=O)Nc2nc(-c3ccc(F)cc3)cs2)cc1
- AC50: 2.92 µM

Compound: Cc1ccc(Cn2c(=N)n(CC(=O)c3ccccc3)c3ccccc32)cc1
- AC50: 9.12 µM

Compound: O=C(Nc1ccc(Cl)cc1)/C(=C/c1cccc(O)c1)c1nc2ccccc2s1
- AC50: 4.46 µM

Compound: CCOC(=O)c1cnc(-n2nc(C)cc2C)nc1NC1CCCC1
- AC50: 2.38 µM

Compound: CCOC(=O)c1nc(NNC(=O)c2ccc([N+](=O)[O-])cc2)sc1C
- AC50: 7.04 µM

Compound: CCCCCCCCCn1c2c(c(=N)c3c1CCC3)CCC2
- AC50: < 0.195 µM

Compound: CC1CCC(C(C)C)C(OC(=O)Cn2c(-c3ccc(F)cc3)[n+](C)c3ccccc32)C1 (stereo not given)
- AC50: 4.49 µM

Compound: COc1ccc(S(=O)(=O)N(C(=O)c2ccco2)c2cc3sc(=O)oc3c3ccccc23)cc1
- AC50: 14.5 µM

Compound: CCc1c(C2(O)CCCCC2)[nH]c2cc(C(F)(F)F)ccc12
- AC50: 11 µM

Compound: O=C(OCn1ncc(Cl)c(Cl)c1=O)c1ccc(F)cc1
- AC50: 7.02 µM

Compound: CCN(CC)S(=O)(=O)c1ccc(Oc2ccc(S(=O)(=O)N(CC)CC)cc2)cc1
- AC50: 2.88 µM

Compound: COc1ccc(NC(=O)/C(Cl)=C(/Cl)S(=O)Cc2ccccc2)cn1 (stereo not given)
- AC50: 2.05 µM

Compound: O=C1C=C(N2CCCCC2)c2ccccc2C1=O
- AC50: 10.6 µM

Compound: Oc1c(C(c2ccccc2Cl)N2CCCC2)ccc2cccnc12 (stereo not given)
- AC50: 7.11 µM

Compound: Cc1cc2nc(-c3ccc(NC(=O)c4cccnc4)cc3)oc2cc1C
- AC50: 9.26 µM

Compound: N=c1ccn(CC(=O)c2ccc(-c3ccccc3)cc2)cc1
- AC50: 1.94 µM

Compound: Cc1cc2c(NCCc3ccccc3)ncnc2s1
- AC50: 2.95 µM

Compound: Cn1nccc1C(=O)NC1CCCc2c1cnn2-c1ccc(F)cc1F (stereo not given)
- AC50: 2.48 µM

Compound: CN(C)CCCN(C(=O)COc1ccc(Cl)cc1)c1nc2cc3c(cc2s1)OCO3
- AC50: 15.6 µM

Compound: CCNC(=O)Nc1cc(S(=O)(=O)Nc2ccc(OC)cc2)ccc1N1CCOCC1
- AC50: 6.84 µM

Compound: O=C(Nc1ccc(OCC(=O)N2CCC(Cc3ccccc3)CC2)cc1)c1ccco1
- AC50: 7 µM

Compound: COc1cc(C(=O)N/N=C(\C)c2ccccn2)cc(OC)c1OC
- AC50: 10.6 µM

Compound: CC(C)(C)c1cc(CCC(=O)NNC(=S)NC(=O)c2ccccc2)cc(C(C)(C)C)c1O
- AC50: 7.17 µM

Compound: CC(=O)N(C)C1=C(N2CCOCC2)C(=O)c2ccccc2C1=O
- AC50: 7.91 µM

Compound: CCCCNc1c(-c2ccc(SC3CCCCC3)cc2)nc2ccccn12
- AC50: 5.31 µM

Compound: COc1cc(Br)cc(/C=N/NC(=O)Cc2ccc(C(F)(F)F)cc2[N+](=O)[O-])c1O
- AC50: 14.7 µM

Compound: Cc1sc2ncnc(NCC(C)(C)N3CCOCC3)c2c1C
- AC50: 6.11 µM

Compound: COc1ccc(CNC[C@@H](CCCCN(C)Cc2ccc(OC)cc2)N2C[C@H](c3ccccc3)N(CCc3ccc(Cl)c(Cl)c3)C(=O)C2=O)cc1
- AC50: 7.17 µM

Compound: Cc1ccccc1CS(=O)(=O)c1nnc([C@H](Cc2ccccc2)NC(=O)OC(C)(C)C)o1
- AC50: 13 µM

Compound: C#CCOCCOCCOCCNc1nc(N2CCN(C(=O)CCCCCCCCCCNC(=O)[C@H](CCCCN)n3cc(C[C@@H](C)CC)nn3)CC2)nc(N2CCN(C(=O)CCCCCCCCCCNC(=O)[C@@H]([C@H](C)O)n3cc(C)nn3)CC2)n1
- AC50: 6.91 µM

Compound: O=C(N/N=C/c1ccccc1)c1c(O)c2ccccc2[nH]c1=O
- AC50: 6.58 µM

Compound: COc1ccc2c(c1)C(=O)[C@@H](O)[C@H](c1ccc(OC)c(Br)c1)O2
- AC50: 10.4 µM

Compound: CCC1(c2ccc(F)cc2)NC(=O)N(CC(=O)Nc2ccc(-c3nc4ccc(C)cc4s3)cc2)C1=O (stereo not given)
- AC50: 12.4 µM

Compound: Cc1ccc(Nc2c3c(nc4ccccc24)CCC3)cc1
- AC50: 16 µM

Compound: Cn1nc(-c2ccccn2)nc2c(=O)n(C)c(=O)nc1-2
- AC50: 3.1 µM

Compound: CC(C)CN(C(=O)COC(=O)C12CC3CC(CC(C3)C1)C2)c1c(N)n(Cc2ccccc2)c(=O)[nH]c1=O
- AC50: 3.89 µM

Compound: CCCCNc1c(-c2cccc(-c3ccc(OC)cc3)c2)nc2ccc(C)cn12
- AC50: 7.32 µM

Compound: CCCC(=O)NC(c1cccs1)c1cc(Cl)c2cccnc2c1O (stereo not given)
- AC50: 5.67 µM

Compound: COC(=O)C1=C(C)N(Cc2ccccc2)C(=NCc2cccc(C(F)(F)F)c2)N[C@H]1c1cccc(F)c1
- AC50: 8.07 µM

Compound: Cc1ccc(N=Nc2ccc(O)c3ncccc23)cc1
- AC50: 6.58 µM

Compound: COC(=O)C1CCN(C(=O)c2cc(-c3ccc(Cl)s3)nc3ccccc23)CC1
- AC50: 3.24 µM

Compound: O=C(NCc1cccnc1)c1ccc(NC(=O)c2cccc([N+](=O)[O-])c2)cc1
- AC50: 0.205 µM

Compound: COc1ccc2cc3[n+](cc2c1OC)CCc1cc2c(cc1-3)OCO2
- AC50: 5.44 µM

Compound: C/C(=N\NC(=O)c1ccc(Cl)c(Cl)c1)c1ccccn1
- AC50: 0.98 µM

Compound: S=C(c1cn(CCOc2cccc3ccccc23)c2ccccc12)N1CCCC1
- AC50: 7.48 µM

Compound: CCCCCCCCCn1ccc(=N)cc1
- AC50: 0.553 µM

From PubChem BioAssay AID463229 (Broad Institute, 2010)
